Bounds are passed on as bounds.

Test [1] deals with K562 (BCR-ABL+) cells. In words: CCK-8 proliferation inhibition, K562 cells.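 Also: Ten-point threefold dilution series starting at 10 µM, absorbance at 450 nm after 2 h with CCK-8, DMSO as negative control.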 Particulars: Homo sapiens, K562, 48 h, CCK-8, 48 hours of drug treatment; read-out: Proliferative inhibitory activity (IC50, nM) K562 (BCR-ABL+). The format is cell-based, human.
Test [2] deals with U937 (BCR-ABL-) cells. Nature of the test: CCK-8 proliferation inhibition, U937 cells.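 Also: Ten-point threefold dilution series, absorbance at 450 nm after 2 h with CCK-8 reagent, DMSO as negative control.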 The format is cell-based, human. Particulars: Homo sapiens, U-937; CCK-8, 48 hours of drug treatment, highest concentration 10 μM; read-out: Proliferative inhibitory activity (IC50, nM) U937 (BCR-ABL-).
For test [3], the system named is HEK293 (BCR-ABL-) cells. In words: CCK-8 proliferation inhibition, HEK293 cells.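 Also: Ten-point threefold dilution series starting at 10 µM, CCK-8 absorbance at 450 nm read after 2 h reagent incubation, DMSO-treated cells as negative control.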 The settings on record: Homo sapiens, HEK293, 48 h, read-out: Proliferative inhibitory activity (IC50, nM) HEK293 (BCR-ABL-).
Test [4] addresses c-ABL protein (Homo sapiens, UniProt P00519). In words: Western blot degradation of c-ABL in K562 cells. In kind it is cell-based. On the set-up: Western blot was used to detect the expression of BCR-ABL and c-ABL protein in K562 cells; endogenous in cells; host or cells: K562. Particulars: 16 hours, 1 nM-10 μM. As for the experimental part: (§1) (1) Cell seed: K562 cells were added to the 24 well plates, with a cell density of 3×10^5/ml and a total volume of 1.5 ml; Five concentration gradients, 1 nm, 10 nm, 100 nm, 1 μM, and 10 μM, were respectively set for PROTAD series compounds and comparative examples compounds (Dasa-6-2-2-6-VHL, Dasa-6-2-6-CRBN). […] After 16 hours of drug treatment, the cells were collected in 1.5 ml ep tube, centrifuged at 3000 rpm for 3 minutes, and then added 30 μL PBS and 30 ul 2×SDS to cell precipitated, lysate Heat at 100° C. for 5 minutes, then place on ice for 5 minutes, centrifuged at 10000 rpm for 5 minutes, and take the supernatant as the total protein extracted. The protein concentration was determined by the Bradford method. After each sample was at the same concentration, bromophenol blue was added as the sample indicator.
(§2) (2) Electrophoresis: the starting voltage of the BioRad electrophoresis instrument was 80V, and as the dye enters the separation gel, the voltage was adjusted to 120V;
(§3) (3) Film transfer: prepare filter paper and nitrocellulose membrane with the corresponding size of the gel, filter paper, and NC film were soaked in transfer electrophoresis buffer.
(§4) DC50 (concentration required to degrade protein by half) were calculated based on the intensity from western blot, and data were analyzed via Prism GraphPad with non-linear regression.
On the technique in general: A western blot detects proteins with antibodies after separation by electrophoresis.

In test [5] the target is BCR-ABL protein (Homo sapiens, UniProt P00519). Nature of the test: Western blot degradation of BCR-ABL in K562 cells. The format is cell-based. Set-up: Western blot was used to detect the expression of BCR-ABL and c-ABL protein in K562 cells; BCR (fusion partner, P11274); endogenous in cells; host or cells: K562; the other entry of the earlier key: BCR (P11274, Breakpoint cluster region protein). The settings on record: 16 hours, 1 nM-10 μM. As for the experimental part: as §1, §2, §3, §4
BCR-ABL protein, sequence (P00519 with tags, fused parts or gaps): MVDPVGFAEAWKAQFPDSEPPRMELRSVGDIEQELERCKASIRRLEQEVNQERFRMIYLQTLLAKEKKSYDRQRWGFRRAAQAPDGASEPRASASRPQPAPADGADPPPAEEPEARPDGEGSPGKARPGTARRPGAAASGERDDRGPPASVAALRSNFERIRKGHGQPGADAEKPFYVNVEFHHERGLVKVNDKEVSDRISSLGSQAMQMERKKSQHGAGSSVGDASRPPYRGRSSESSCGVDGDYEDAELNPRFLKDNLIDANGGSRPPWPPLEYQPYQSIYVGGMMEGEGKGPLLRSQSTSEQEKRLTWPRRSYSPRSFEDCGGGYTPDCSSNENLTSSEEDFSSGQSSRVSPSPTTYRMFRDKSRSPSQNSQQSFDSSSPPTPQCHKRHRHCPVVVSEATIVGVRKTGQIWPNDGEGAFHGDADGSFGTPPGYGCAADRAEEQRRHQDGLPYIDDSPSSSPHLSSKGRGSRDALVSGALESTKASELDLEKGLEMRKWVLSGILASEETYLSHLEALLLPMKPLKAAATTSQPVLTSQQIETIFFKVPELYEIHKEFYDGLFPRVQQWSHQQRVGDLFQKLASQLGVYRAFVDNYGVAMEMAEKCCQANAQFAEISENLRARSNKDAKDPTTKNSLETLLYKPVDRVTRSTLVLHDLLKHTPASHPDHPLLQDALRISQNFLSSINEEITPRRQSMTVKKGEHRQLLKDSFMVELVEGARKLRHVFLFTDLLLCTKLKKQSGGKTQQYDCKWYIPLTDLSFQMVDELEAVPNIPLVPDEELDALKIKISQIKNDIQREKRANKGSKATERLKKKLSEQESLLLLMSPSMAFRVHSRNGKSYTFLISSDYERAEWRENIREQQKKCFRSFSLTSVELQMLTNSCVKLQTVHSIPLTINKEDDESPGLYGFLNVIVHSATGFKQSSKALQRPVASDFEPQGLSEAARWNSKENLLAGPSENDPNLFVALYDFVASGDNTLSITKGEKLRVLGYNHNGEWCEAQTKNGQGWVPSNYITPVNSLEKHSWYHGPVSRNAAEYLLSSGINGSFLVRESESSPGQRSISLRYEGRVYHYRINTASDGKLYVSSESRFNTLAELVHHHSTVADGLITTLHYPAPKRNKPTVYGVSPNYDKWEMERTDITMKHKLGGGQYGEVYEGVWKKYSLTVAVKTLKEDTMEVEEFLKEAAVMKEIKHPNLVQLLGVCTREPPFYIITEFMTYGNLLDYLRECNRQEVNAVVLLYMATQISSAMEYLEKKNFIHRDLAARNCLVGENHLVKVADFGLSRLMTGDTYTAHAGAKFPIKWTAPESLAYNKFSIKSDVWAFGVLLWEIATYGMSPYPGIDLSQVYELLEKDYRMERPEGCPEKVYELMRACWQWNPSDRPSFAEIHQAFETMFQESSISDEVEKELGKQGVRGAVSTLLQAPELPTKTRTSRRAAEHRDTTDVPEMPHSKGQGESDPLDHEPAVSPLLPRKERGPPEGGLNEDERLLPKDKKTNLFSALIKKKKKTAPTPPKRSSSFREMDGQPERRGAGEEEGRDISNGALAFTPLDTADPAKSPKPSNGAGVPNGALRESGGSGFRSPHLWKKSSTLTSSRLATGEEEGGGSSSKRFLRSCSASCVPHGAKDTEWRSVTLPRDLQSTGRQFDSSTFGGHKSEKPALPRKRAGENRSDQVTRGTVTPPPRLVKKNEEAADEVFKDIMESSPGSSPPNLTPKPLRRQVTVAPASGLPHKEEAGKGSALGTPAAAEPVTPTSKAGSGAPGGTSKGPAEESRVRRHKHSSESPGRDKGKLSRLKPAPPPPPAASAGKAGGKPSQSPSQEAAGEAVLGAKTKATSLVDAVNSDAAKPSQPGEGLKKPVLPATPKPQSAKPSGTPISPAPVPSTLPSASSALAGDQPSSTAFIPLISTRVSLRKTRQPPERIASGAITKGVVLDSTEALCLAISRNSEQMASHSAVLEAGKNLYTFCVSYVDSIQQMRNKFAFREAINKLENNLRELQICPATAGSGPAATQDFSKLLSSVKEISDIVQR

c-ABL protein, sequence (P00519 whole entry): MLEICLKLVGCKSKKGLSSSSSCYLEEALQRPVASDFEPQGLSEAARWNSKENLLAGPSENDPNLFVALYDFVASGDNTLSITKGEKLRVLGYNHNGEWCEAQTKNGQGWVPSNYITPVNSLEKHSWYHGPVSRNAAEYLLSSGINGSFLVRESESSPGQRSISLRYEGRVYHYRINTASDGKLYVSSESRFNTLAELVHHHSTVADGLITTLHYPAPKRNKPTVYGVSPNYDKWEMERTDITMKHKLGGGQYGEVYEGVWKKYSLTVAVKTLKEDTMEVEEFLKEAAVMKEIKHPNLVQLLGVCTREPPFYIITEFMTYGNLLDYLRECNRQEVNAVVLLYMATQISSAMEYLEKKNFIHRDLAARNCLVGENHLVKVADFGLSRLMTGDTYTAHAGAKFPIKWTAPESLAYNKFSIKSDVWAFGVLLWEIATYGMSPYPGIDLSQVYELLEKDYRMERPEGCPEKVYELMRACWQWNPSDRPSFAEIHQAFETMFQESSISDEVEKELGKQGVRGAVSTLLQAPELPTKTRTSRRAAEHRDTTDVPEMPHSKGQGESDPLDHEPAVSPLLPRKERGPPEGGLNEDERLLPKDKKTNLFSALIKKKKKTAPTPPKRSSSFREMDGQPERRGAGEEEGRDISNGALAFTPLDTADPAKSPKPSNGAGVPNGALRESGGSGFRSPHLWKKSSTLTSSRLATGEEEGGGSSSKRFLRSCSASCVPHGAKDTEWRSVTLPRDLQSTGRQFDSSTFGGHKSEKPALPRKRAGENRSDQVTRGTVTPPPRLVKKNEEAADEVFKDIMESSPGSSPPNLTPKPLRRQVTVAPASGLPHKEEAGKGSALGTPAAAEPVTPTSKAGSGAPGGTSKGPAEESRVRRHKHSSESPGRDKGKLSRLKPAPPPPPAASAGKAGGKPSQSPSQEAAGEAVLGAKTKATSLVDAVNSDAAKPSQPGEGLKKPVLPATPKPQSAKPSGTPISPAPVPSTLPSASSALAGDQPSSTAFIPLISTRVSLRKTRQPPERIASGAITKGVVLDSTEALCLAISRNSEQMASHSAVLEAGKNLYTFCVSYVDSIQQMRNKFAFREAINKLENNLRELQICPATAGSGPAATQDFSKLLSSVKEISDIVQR

Turning to `Cc1nc(Nc2ncc(C(=O)Nc3c(C)cccc3Cl)s2)cc(N2CCN(C(=O)CCCCCNc3cccc4c3C(=O)N(C3CCC(=O)NC3=O)C4=O)CC2)n1` (stereo not shown) [SIAIS151075, N-(2-chloro-6-methylphenyl)-2-((6-(4-(6-((2-(2,6-dioxopiperidin-3-yl)-1,3-dioxoisoindolin-4-yl)amino)hexanoyl)piperazin-1-yl)-2-methylpyrimidin-4-yl)amino)thiazole-5-carboxamide], the IC50 in test [1] was 0.03 nM; in test [2], above 10000 nM; in test [3], above 10000 nM. The 50% degradation concentration (DC50) in test [4] and in test [5] was 1 to 10 nM each time.
With `Cc1nc(Nc2ncc(C(=O)Nc3c(C)cccc3Cl)s2)cc(N2CCN(C(=O)CCOCCOCCOCCOCCC(=O)N[C@H](C(=O)N3C[C@H](O)C[C@H]3C(=O)NCc3ccc(-c4scnc4C)cc3)C(C)(C)C)CC2)n1` [SIAIS151078, N-(2-chloro-6-methylphenyl)-2-((6-(4-((S)-18-((2S,4R)-4-hydroxy-2-((4-(4-methylthiazol-5-yl)benzyl)carbamoyl)pyrrolidine-1-carbonyl)-19,19-dimethyl-16-oxo-4,7,10,13-tetraoxa-17-azaicosanoyl)piperazin-1-yl)-2-methylpyrimidin-4-yl)amino)thiazole-5-carboxamide], the half-maximal inhibitory concentration (IC50) is 2160 nM in test [1], above 10000 nM in test [2] and above 10000 nM in test [3]. The results for the DC50 in test [4] and in test [5] were above 1000 nM and 100 to 1000 nM, respectively.
Consider `COc1cc(Nc2c(C#N)cnc3cc(OCCCN4CCN(C(=O)CCOCCOCCNc5cccc6c5C(=O)N(C5CCC(=O)NC5=O)C6=O)CC4)c(OC)cc23)c(Cl)cc1Cl` (stereo not shown) [SIAIS151158, 4-((2,4-dichloro-5-methoxyphenyl)amino)-7-(3-(4-(3-(2-(2-((2-(2,6-dioxopiperidin-3-yl)-1,3-dioxoisoindolin-4-yl)amino)ethoxy)ethoxy)propanoyl)piperazin-1-yl)propoxy)-6-methoxyquinoline-3-carbonitrile], for which the results for the IC50 in test [1], in test [2] and in test [3] were 3130 nM, above 10000 nM and above 10000 nM, respectively. For the same molecule, the DC50 in test [4] and in test [5] was 10 to 100 nM throughout.
For the molecule `COc1cc(Nc2c(C#N)cnc3cc(OCCCN4CCN(C(=O)CCOCCOCCOCCNc5cccc6c5C(=O)N(C5CCC(=O)NC5=O)C6=O)CC4)c(OC)cc23)c(Cl)cc1Cl` (stereo not shown) [SIAIS151159, 4-((2,4-dichloro-5-methoxyphenyl)amino)-7-(3-(4-(3-(2-(2-(2-((2-(2,6-dioxopiperidin-3-yl)-1,3-dioxoisoindolin-4-yl)amino)ethoxy)ethoxy)ethoxy)propanoyl)piperazin-1-yl)propoxy)-6-methoxyquinoline-3-carbonitrile], the concentration for half-maximal inhibition (IC50) was 4260 nM in test [1], above 10000 nM in test [2] and above 10000 nM in test [3]. The half-maximal degradation concentration (DC50) in test [4] and in test [5] was 10 to 100 nM in each case.
As to `COc1cc(Nc2c(C#N)cnc3cc(OCCCN4CCN(C(=O)CCOCCOCCOCCOCCNc5cccc6c5C(=O)N(C5CCC(=O)NC5=O)C6=O)CC4)c(OC)cc23)c(Cl)cc1Cl` (stereo not shown) [SIAIS151160, 4-((2,4-dichloro-5-methoxyphenyl)amino)-7-(3-(4-(1-((2-(2,6-dioxopiperidin-3-yl)-1,3-dioxoisoindolin-4-yl)amino)-3,6,9,12-tetraoxapentadecan-15-oyl)piperazin-1-yl)propoxy)-6-methoxyquinoline-3-carbonitrile], the IC50 is 4650 nM in test [1], above 10000 nM in test [2] and above 10000 nM in test [3]. Moreover, the DC50 in test [4] and in test [5] was 10 to 100 nM each time.
For `COc1cc(Nc2c(C#N)cnc3cc(OCCCN4CCN(C(=O)CCOCCOCCOCCOCCOCCNc5cccc6c5C(=O)N(C5CCC(=O)NC5=O)C6=O)CC4)c(OC)cc23)c(Cl)cc1Cl` (stereo not shown) [SIAIS151161, 4-((2,4-dichloro-5-methoxyphenyl)amino)-7-(3-(4-(1-((2-(2,6-dioxopiperidin-3-yl)-1,3-dioxoisoindolin-4-yl)amino)-3,6,9,12,15-pentaoxaoctadecan-18-oyl)piperazin-1-yl)propoxy)-6-methoxyquinoline-3-carbonitrile], the figures for the half-maximal inhibitory concentration (IC50) in test [1], in test [2] and in test [3] were 7260 nM, above 10000 nM and above 10000 nM, respectively. The half-maximal degradation concentration (DC50) in test [4] and in test [5] was 100 to 1000 nM in each case.
With `COc1cc(Nc2c(C#N)cnc3cc(OCCCN4CCN(C(=O)CCCNc5cccc6c5C(=O)N(C5CCC(=O)NC5=O)C6=O)CC4)c(OC)cc23)c(Cl)cc1Cl` (stereo not shown) [SIAIS151162, 4-((2,4-dichloro-5-methoxyphenyl)amino)-7-(3-(4-(4-((2-(2,6-dioxopiperidin-3-yl)-1,3-dioxoisoindolin-4-yl)amino)butanoyl)piperazin-1-yl)propoxy)-6-methoxyquinoline-3-carbonitrile], the half-inhibitory concentration (IC50) was 712 nM in test [1], above 10000 nM in test [2] and above 10000 nM in test [3]. Also, the DC50 in test [4] and in test [5] was 10 to 100 nM each time.
As for `COc1cc(Nc2c(C#N)cnc3cc(OCCCN4CCN(C(=O)CCCCNc5cccc6c5C(=O)N(C5CCC(=O)NC5=O)C6=O)CC4)c(OC)cc23)c(Cl)cc1Cl` (stereo not shown) [SIAIS151163, 4-((2,4-dichloro-5-methoxyphenyl)amino)-7-(3-(4-(5-((2-(2,6-dioxopiperidin-3-yl)-1,3-dioxoisoindolin-4-yl)amino)pentanoyl)piperazin-1-yl)propoxy)-6-methoxyquinoline-3-carbonitrile], the IC50 in test [1] was 126 nM; in test [2], above 10000 nM; in test [3], above 10000 nM. Also, the DC50 in test [4] and in test [5] was 10 to 100 nM in each case.
Turning to `COc1cc(Nc2c(C#N)cnc3cc(OCCCN4CCN(C(=O)CCCCCNc5cccc6c5C(=O)N(C5CCC(=O)NC5=O)C6=O)CC4)c(OC)cc23)c(Cl)cc1Cl` (stereo not shown) [SIAIS151166, 4-((2,4-dichloro-5-methoxyphenyl)amino)-7-(3-(4-(6-((2-(2,6-dioxopiperidin-3-yl)-1,3-dioxoisoindolin-4-yl)amino)hexanoyl)piperazin-1-yl)propoxy)-6-methoxyquinoline-3-carbonitrile], the IC50 was 894 nM in test [1], above 10000 nM in test [2] and above 10000 nM in test [3]. In addition, the 50% degradation concentration (DC50) in test [4] and in test [5] was 10 to 100 nM in each case.
`COc1cc(Nc2c(C#N)cnc3cc(OCCCN4CCN(C(=O)CCCCCCNc5cccc6c5C(=O)N(C5CCC(=O)NC5=O)C6=O)CC4)c(OC)cc23)c(Cl)cc1Cl` (stereo not shown) [SIAIS151167, 4-((2,4-dichloro-5-methoxyphenyl)amino)-7-(3-(4-(7-((2-(2,6-dioxopiperidin-3-yl)-1,3-dioxoisoindolin-4-yl)amino)heptanoyl)piperazin-1-yl)propoxy)-6-methoxyquinoline-3-carbonitrile]: the IC50 is 3650 nM in test [1], above 10000 nM in test [2] and above 10000 nM in test [3]. For the same molecule, the DC50 in test [4] and in test [5] was 10 to 100 nM in each case.
On to `Cc1nc(Nc2ncc(C(=O)Nc3c(C)cccc3Cl)s2)cc(N2CCN(C(=O)CCC(=O)N[C@H](C(=O)N3C[C@H](O)C[C@H]3C(=O)NCc3ccc(-c4scnc4C)cc3)C(C)(C)C)CC2)n1` [SIAIS151174, N-(2-chloro-6-methylphenyl)-2-((6-(4-(4-(((S)-1-((2S,4R)-4-hydroxy-2-((4-(4-methylthiazol-5-yl)benzyl)carbamoyl)pyrrolidin-1-yl)-3,3-dimethyl-1-oxobutan-2-yl)amino)-4-oxobutanoyl)piperazin-1-yl)-2-methylpyrimidin-4-yl)amino)thiazole-5-carboxamide], for which the IC50 in test [1] was 78 nM; in test [2], above 10000 nM; in test [3] it was above 10000 nM. Moreover, the 50% degradation concentration (DC50) in test [4] and in test [5] was 100 to 1000 nM each time.

As a reminder, the IC50 is the concentration that gives 50% inhibition. As a reminder, the DC50 is the concentration giving 50% degradation.

The values are drawn from patent US11639343B2, “Compounds targeting and degrading BCR-ABL protein and its antitumor application” (ShanghaiTech University, priority 2019, dated 2023).
